Drawing on US11066409B2, “Bicyclic nitrogen-containing heterocyclic derivatives and pharmaceutical composition comprising the same” (Shionogi & Co., Ltd., priority 2016, dated 2021), this text covers IC50 for 62 molecules.

The structures appear in SMILES notation.

Chain of human P2X7 receptor (Q99572 whole entry R270H): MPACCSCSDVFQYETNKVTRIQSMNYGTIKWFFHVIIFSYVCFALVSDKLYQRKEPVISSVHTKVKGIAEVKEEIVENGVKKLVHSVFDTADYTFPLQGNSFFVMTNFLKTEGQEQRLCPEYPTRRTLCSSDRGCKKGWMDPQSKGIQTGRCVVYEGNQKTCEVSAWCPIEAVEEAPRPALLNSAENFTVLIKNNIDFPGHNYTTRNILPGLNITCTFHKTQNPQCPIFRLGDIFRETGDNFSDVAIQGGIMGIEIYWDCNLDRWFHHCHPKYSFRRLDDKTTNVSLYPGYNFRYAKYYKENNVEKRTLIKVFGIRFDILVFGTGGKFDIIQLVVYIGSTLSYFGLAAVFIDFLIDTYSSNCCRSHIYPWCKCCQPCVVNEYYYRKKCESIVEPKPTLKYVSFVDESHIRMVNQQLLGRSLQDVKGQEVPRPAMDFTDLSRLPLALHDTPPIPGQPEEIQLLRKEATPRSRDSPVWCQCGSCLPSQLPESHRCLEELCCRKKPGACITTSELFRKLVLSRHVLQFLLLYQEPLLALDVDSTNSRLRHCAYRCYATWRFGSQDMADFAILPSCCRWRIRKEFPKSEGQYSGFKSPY

The target of the first assay is human P2X7 receptor (Homo sapiens (Human), UniProt Q99572, R270H). As to the kind of experiment: Evaluation of a human P2X7 receptor inhibitory activity (Yo-Pro uptake, BzATP stimulation, FLIPR TETRA). It is filed as cell-based. The conditions noted are these: 1321N1 cells stably expressing human P2X7 receptor, Yo-Pro fluorescence. The method, then: Evaluation of a human P2X7 receptor inhibitory activity Stably expressing cell line (1321N1 cell transfected with the human P2X7 receptor gene (GenBank accession number NM_002562.5 including T606C and G952A SNP)) was used. The cells were seeded in a 384-well microtiter plate at a concentration of 8000 cells/well and cultured in the medium (10% fetal bovine serum, 25 mM HEPES, 1% penicillin and streptomycin in DMEM) for one day at 37° C. under 5% carbon dioxide atmosphere. After replacing with 20 μL of the HBSS buffer (20 mM HEPES, 55.6 mM D-glucose, 1× HBSS(−), pH7.4-7.5), 15 μL of 17.3 μM Yo-Pro solution in the HBSS buffer was added. The plate was placed in high-throughput cellular screening system FLIPR TETRA (Molecullar Devices, LLC.) and 15 μL of 130 μM BzATP solution in the HBSS buffer was added. Measurement of fluorescence intensity by FLIPR TETRA was started. After eight minutes, 15 μL of DMSO solutions containing different concentrations of the compound of the present invention as prepared by dilution with the HBSS buffer were dispensed to each well through the built-in automatic dispenser, and the measurement of fluorescence intensity was continued for 20 minutes. The maximum fluorescence intensity without the compound of the present invention is calculated as 0% inhibition and the maximum fluorescence intensity when the reference compound was added is calculated as 100% inhibition. Changing values of fluorescence intensity by the compound of the present invention were calculated by difference between maximum and minimum fluorescence intensity for 20 minutes. Inhibition ratios (%) were calculated from the following equation:
[formula] IC50 was calculated using logistic approximation.
As for IC50 value, value to below 10 nmol/L is represented as “A”, value from 10 nmol/L to below 100 nmol/L is represented as “B”, value from 100 nmol/L to below 500 nmol/L is represented as “C”, and value from 500 nmol/L to below 1 μmol/L is represented as “D”.
Consider `C=Cc1c2n(c(Nc3ccc(OC)nc3C)nc1=O)C(c1cc(F)cc(F)c1)CC2` (centres unmarked) [Compound I-0091], for which 0.017 µM corresponded to half-maximal inhibition (IC50).
As for `COc1cc(NC2=NC(=O)N(C)C3=NCC(c4ccc(F)cc4)N23)c(C)cc1F` (centres unmarked) [Compound I-0150], the concentration for half-maximal inhibition (IC50) (usually the concentration that inhibits the measured activity by half) was 0.018 µM.
On the same count and under the same terms, the result for `COc1c2n(c(Nc3cc4sc(C)nc4cc3C)nc1=O)C(c1ccccc1)CC2` (centres unmarked) [Compound I-0032] reads 0.016 µM.
Molecule `COc1c2n(c(Nc3cccc(Cl)c3C)nc1=O)C(c1ccccc1)CCO2` (centres unmarked) [Compound I-0009] yielded an IC50 of 0.022 µM.

The assay is the same for the next values; noted with them: 1321N1 cells stably expressing human P2X7 receptor, Yo-Pro fluorescence, class symbols.
Take `Cc1c(Cl)cccc1Nc1nc(=O)cc2n1C(c1cccc(Cl)c1)CC2` (centres unmarked) [Compound I-0008]: the IC50 is under 0.01 µM.
Still for that read-out and setting: the value for `COc1ccc(Nc2nc(=O)cc3n2C(c2ccccc2)CN3C)c(C)c1` (centres unmarked) [Compound I-0110] was under 0.01 µM; that for `CCOc1cc(NC2=NC(=O)N(C)C3=NCC(c4cc(F)c(F)c(F)c4)N23)c(C)cc1F` (centres unmarked) [Compound I-0157] was 0.01 to 0.1 µM; that for `Cc1cc(OC(F)F)c(C)cc1/N=c1\[nH]c(=O)cc2n1C(c1ccccc1)CC2` (centres unmarked) [Compound I-0065] was under 0.01 µM.
Still for that read-out and setting: the result for `CN1C(=O)N=C(NCc2ccccc2F)N2C1=NCC2c1cc(F)c(F)c(F)c1` (centres unmarked) [Compound I-0196] reads 0.01 to 0.1 µM; that for `COc1cc(C)c(Nc2nc(=O)cc3n2C(c2ccc(F)cc2)CC3)cc1OC` (centres unmarked) [Compound I-0017], 0.01 to 0.1 µM; that for `COc1ccc(Nc2nc(=O)c(F)c3n2C(c2ccc(F)cc2)CN3C)c(C)n1` (centres unmarked) [Compound I-0160], 0.01 to 0.1 µM.
On the same count and under the same terms, the result for `Cc1ccc(C=O)cc1NC1=NC(=O)N(C)C2=NCC(c3cc(F)c(F)c(F)c3)N12` (centres unmarked) [Compound I-0191] reads 0.01 to 0.1 µM; that for `COc1cc(C)c(Nc2nc(=O)cc3n2C(c2ccccc2)CC3)cc1Cl` (centres unmarked) [Compound I-0028], under 0.01 µM.
`COc1ccc(NC2=NC(=O)N(C)C3=NCC(c4ccc(F)c(F)c4)N23)c(C)c1` (centres unmarked) [Compound I-0125] yielded an IC50 of 0.01 to 0.1 µM.
`CCOc1ccc(/N=c2\[nH]c(=O)c(F)c3n2C(c2ccc(F)cc2F)CC3)c(C)n1` (centres unmarked) [Compound I-0081] gave an IC50 of 0.01 to 0.1 µM.
Molecule `COc1ccc(Nc2nc(=O)c(C)c3n2C(c2cc(F)cc(F)c2)CC3)c(C)n1` (centres unmarked) [Compound I-0087] returned a concentration for half-maximal inhibition (IC50) of 0.01 to 0.1 µM.
Same read-out and setting: the result for `CCN1C(=O)N=C(Nc2cc(C)c(C)cc2C)N2C1=NCC2c1ccc(F)cc1` (centres unmarked) [Compound I-0109] reads 0.01 to 0.1 µM; that for `COc1ccc(C)c(NC2=NC(=O)N(C)C3=NCC(c4ccc(F)cc4)N23)c1` (centres unmarked) [Compound I-0129], 0.01 to 0.1 µM.
For `COc1ccc(Nc2nc(=O)cc3n2C(c2cccc(Cl)c2)CC3)c(C)c1` (centres unmarked) [Compound I-0050], the IC50 is under 0.01 µM.
The molecule `Cc1cc(OC(F)F)ccc1/N=c1\[nH]c(=O)c(F)c2n1C(c1ccc(F)cc1F)CC2` (centres unmarked) [Compound I-0057] registered an IC50 of 0.01 to 0.1 µM.
Same read-out and setting: the result for `COc1ccc(Nc2nc(=O)n(C)c3ncn(Cc4ccccc4)c23)c(C)c1` [Compound I-0174] reads 0.1 to 0.5 µM; that for `COc1ccc(Nc2nc(=O)c(F)c3n2C(c2cc(F)cc(F)c2)CC3)c(C)c1F` (centres unmarked) [Compound I-0108], 0.01 to 0.1 µM; that for `COc1ccc(C)c(Nc2nc(=O)cc3n2C(c2ccccc2)CN3C)c1` (centres unmarked) [Compound I-0105], 0.01 to 0.1 µM.
Turning to `COc1cc(C)c(NC2=NC(=O)N(C)C3=NCC(c4ccc(F)cc4)N23)cc1OC` (centres unmarked) [Compound I-0121], the half-maximal inhibitory concentration (IC50) was in the range of 0.01 to 0.1 µM.
`CCN1C(=O)N=C(Nc2cc(OC)c(OC)nc2C)N2C1=NCC2c1ccc(F)cc1` (centres unmarked) [Compound I-0118]: the IC50 fell in the range of 0.1 to 0.5 µM.
The molecule `COc1cc(Nc2nc(=O)cc3n2C(c2ccccc2)CC3)c(C)cc1F` (centres unmarked) [Compound I-0022] had an IC50 of under 0.01 µM.
On to `COc1nc(C)c(NC2=NC(=O)N(C)C3=NCC(c4cc(F)c(F)c(F)c4)N23)cc1CO` (centres unmarked) [Compound I-0182], for which the IC50 lay in the range of 0.01 to 0.1 µM.
Take `COc1ccc(Nc2nc(=O)c(Cl)c3n2C(c2cc(F)cc(F)c2)CC3)c(C)n1` (centres unmarked) [Compound I-0085]: the IC50 fell in the range of 0.01 to 0.1 µM.
In the case of `COc1nc(C)c(Nc2nc(=O)cc3n2C(c2cc(F)cc(F)c2)CC3)cc1C` (centres unmarked) [Compound I-0051], the IC50 was 0.01 to 0.1 µM.
The molecule `CCOc1ccc(Nc2nc(=O)c(F)c3n2C(c2cc(F)cc(F)c2)CC3)c(CC)n1` (centres unmarked) [Compound I-0096] gave an IC50 of 0.01 to 0.1 µM.
With `Cc1nc2cc(C)c(Nc3nc(=O)c(F)c4n3C(c3ccc(F)cc3F)CC4)cc2s1` (centres unmarked) [Compound I-0058], the IC50 is under 0.01 µM.
`COc1nc(C)c(Nc2nc(=O)c(F)c3n2C(c2cc(F)cc(F)c2)CC3)cc1F` (centres unmarked) [Compound I-0141]: the IC50 lay in the range of 0.01 to 0.1 µM.
The molecule `COc1cc(C)c(Nc2nc(=O)nc3n2C(c2cc(F)c(F)c(F)c2)CN3)cc1OC` (centres unmarked) [Compound I-0153] yielded an IC50 of 0.01 to 0.1 µM.
The molecule `COc1ccc(NC2=NC(=O)N(C)C3=NCC(c4ccc(F)cc4)N23)c(C)n1` (centres unmarked) [Compound I-0119] showed an IC50 of 0.01 to 0.1 µM.
Consider `COc1cc(Nc2nc(=O)cc3n2C(c2cc(F)cc(F)c2)CN3)c(C)cc1F` (centres unmarked) [Compound I-0134], for which the IC50 was under 0.01 µM.
In turn, `COc1ccc(Nc2nc(=O)c(Br)c3n2C(c2cc(F)cc(F)c2)CC3)c(C)n1` (centres unmarked) [Compound I-0086] displayed an IC50 of 0.01 to 0.1 µM.
`COc1nc(C)c(Nc2nc(=O)c(F)c3n2C(c2cc(F)cc(F)c2)CC3)cc1C` (centres unmarked) [Compound I-0136] gave an IC50 of 0.01 to 0.1 µM.
Consider `COc1ccc(NC2=NC(=O)N(C)C3=NCC(c4cc(F)cc(F)c4)N23)c(C)n1` (centres unmarked) [Compound I-0144], for which the IC50 lay in the range of 0.01 to 0.1 µM.
Consider `COc1nc(C)c(NC2=NC(=O)N(C)C3=NCC(c4cc(F)c(F)c(F)c4)N23)cc1C` (centres unmarked) [Compound I-0159], for which the IC50 was in the range of 0.01 to 0.1 µM.
On to `Cc1ccc(OCCS(C)(=O)=O)cc1NC1=NC(=O)N(C)C2=NCC(c3cc(F)c(F)c(F)c3)N12` (centres unmarked) [Compound I-0199], for which the IC50 lay within 0.01 to 0.1 µM.
Regarding `CCc1ccc(CO)cc1NC1=NC(=O)N(C)C2=NCC(Cc3ccccc3)N12` (centres unmarked) [Compound I-0183], the IC50 lay within 0.1 to 0.5 µM.
Same read-out and setting: the value for `COc1ccc(Nc2nc(=O)c(F)c3n2C(c2cc(F)c(F)c(F)c2)CN3)c(C)n1` (centres unmarked) [Compound I-0163] was 0.01 to 0.1 µM; that for `COc1ccc(C)c(/N=c2\[nH]c(=O)cc3n2C(c2cc(F)cc(F)c2)CC3)c1` (centres unmarked) [Compound I-0061] was 0.01 to 0.1 µM.
The molecule `COCC(F)(F)Oc1ccc(C)c(NC2=NC(=O)N(C)C3=NCC(c4cc(F)c(F)c(F)c4)N23)c1` (centres unmarked) [Compound I-0203] returned an IC50 of 0.01 to 0.1 µM.
As for `COc1ccc(Nc2nc(=O)cc3n2C(c2cc(F)c(F)c(F)c2)CC3)c(C)c1` (centres unmarked) [Compound I-0042], the IC50 is under 0.01 µM.
Same read-out and setting: the value for `Cc1cc2c(cc1Nc1nc(=O)cc3n1C(c1cc(F)cc(F)c1)CC3)COC2` (centres unmarked) [Compound I-0066] was under 0.01 µM.
Consider `CCN1C(=O)N=C(Nc2ccc(OC)cc2C)N2C1=NCC2c1ccc(F)cc1` (centres unmarked) [Compound I-0140], for which the IC50 was in the range of 0.01 to 0.1 µM.
Take `COc1nc(C)c(Nc2nc(=O)cc3n2C(c2ccccc2)CC3)cc1C` (centres unmarked) [Compound I-0043]: the IC50 was under 0.01 µM.
On the same count and under the same terms, the value for `CCOc1nc(C)c(Nc2nc(=O)cc3n2C(c2ccc(F)cc2F)CC3)cc1F` (centres unmarked) [Compound I-0082] was 0.01 to 0.1 µM; that for `Cc1ccc(CCO)cc1NC1=NC(=O)N(C)C2=NCC(c3cc(F)c(F)c(F)c3)N12` (centres unmarked) [Compound I-0194] was 0.01 to 0.1 µM; that for `COc1ccc(Nc2nc(=O)cc3n2C(c2ccccc2)CN3C)c(C)c1` (centres unmarked) [Compound I-0104] was 0.01 to 0.1 µM.
On the same count and under the same terms, the value for `COc1ccc(/N=c2\[nH]c(=O)c(F)c3n2C(c2ccc(F)cc2F)CC3)c(C)n1` (centres unmarked) [Compound I-0068] was 0.01 to 0.1 µM; that for `COc1ccc(Nc2nc(=O)cc3n2C(c2ccc(F)c(F)c2)CC3)c(C)c1` (centres unmarked) [Compound I-0041] was under 0.01 µM.
In turn, `Cc1cc(OC(F)F)ccc1/N=c1\[nH]c(=O)cc2n1C(c1cc(F)cc(F)c1)CC2` (centres unmarked) [Compound I-0056] had an IC50 of 0.01 to 0.1 µM.
In the case of `Cc1ccc(NC2=NC(=O)N(C)C3=NCC(c4ccc(F)cc4)N23)c(C)n1` (centres unmarked) [Compound I-0120], the IC50 fell in the range of 0.1 to 0.5 µM.
Consider `Cc1cc2c(cc1Nc1nc(=O)cc3n1C(c1ccccc1)CC3)COC2` (centres unmarked) [Compound I-0040], for which the IC50 lay in the range of 0.01 to 0.1 µM.
The molecule `CCOc1ccc(/N=c2\[nH]c(=O)c(F)c3n2C(c2ccc(F)cc2)CC3)c(C)n1` (centres unmarked) [Compound I-0080] came in with an IC50 of under 0.01 µM.
Molecule `Cc1c(F)cc(C#N)cc1NC1=NC(=O)N(C)C2=NCC(c3cc(F)c(F)c(F)c3)N12` (centres unmarked) [Compound I-0212] returned an IC50 of 0.01 to 0.1 µM.
Same read-out and setting: the value for `CN1C(=O)N=C(Nc2cc(C3CC3)nn2C)N2C1=NCC2c1ccc(F)cc1` (centres unmarked) [Compound I-0113] was 0.5 to 1 µM.
Molecule `Cc1ccccc1Nc1nc(=O)cc2n1C(c1ccccc1)CC2` (centres unmarked) [Compound I-0015] gave an IC50 of 0.01 to 0.1 µM.
`Cc1ccc(C#N)cc1NC1=NC(=O)N(CCO)C2=NCC(c3cc(F)c(F)c(F)c3)N12` (centres unmarked) [Compound I-0189] came in with an IC50 of 0.01 to 0.1 µM.
Take `Cc1c(Cl)cccc1Nc1nc(=O)cc2n1C(c1ccccc1)CCC2` (centres unmarked) [Compound I-0005]: the IC50 fell in the range of 0.01 to 0.1 µM.
